These results are taken from patent US10052330B2, “Substituted pyrido[3,4-b]pyrazines as Syk inhibitors” (HUTCHISON MEDIPHARMA LIMITED, priority 2011, dated 2018).

What is called IC50 is the concentration at which inhibition is half-maximal.

Assay [1] deals with Bone marrow mast cells (BMMCs). The assay is described as follows: IgE-induced LAT phosphorylation in bone marrow mast cells. It counts as cell-based, mice. The following applies: Mus musculus, BMMC; BMMCs from female BALB/C mice, sensitized with SPE-7, stimulated with DNP-BSA; upper bound is 'less than'; read-out: IC50, IgE-induced LAT phosphorylation.
For the next assay, the system named is RBL-2H3 cells. The assay is described as follows: IgE-induced Beta-hexosaminidase secretion in RBL-2H3 cells. It counts as cell-based. The following applies: Rattus norvegicus, RBL-2H3, RBL-2H3 cells sensitized with SPE-7, stimulated with DNP-BSA; upper bound of each range is 'less than'; read-out: IC50, IgE-induced Beta-hexosaminidase secretion.
Another assay deals with Syk kinase (Homo sapiens, UniProt P43405). The assay is described as follows: Syk kinase enzymatic assay (Kit-Tyr 2 Peptide). The class given is biochemical. The following applies: 8 concentrations, 1 μM down to 0.0003 μM; upper bound of each range is 'less than'; read-out: IC50: Enzymatic Activity (Syk kinase).

As to `Cc1cc(-c2cc3nccnc3c(NC[C@@H]3CNCCO3)n2)ccc1N1CCOCC1` [Compound 116], the IC50 lay within 100 to 1000 nM in assay [1], 1 to 100 nM in the assay with RBL-2H3 cells and 1 to 100 nM at Syk kinase.

Consider `NC(=O)CCNc1nc(-c2ccc(N3CCOCC3)cc2)cc2nccnc12` [Compound 188], for which the IC50 fell in the range of 100 to 1000 nM in assay [1], 1 to 100 nM in the assay on RBL-2H3 cells and 100 to 1000 nM at Syk kinase.

`Nc1ccc(-c2cc3nccnc3c(NC[C@H]3CCCNC3)n2)cc1Cl` [Compound 81]: the concentration for half-maximal inhibition (IC50) is 100 to 1000 nM in assay [1], 100 to 1000 nM with RBL-2H3 cells and 1 to 100 nM at Syk kinase.

Regarding `CN(C)c1ccc(-c2cc3nccnc3c(NCC3CCCNC3)n2)cc1` (stereo not drawn) [Compound 12], the IC50 in assay [1] is 100 to 1000 nM; in the assay with RBL-2H3 cells, 1 to 100 nM; on Syk kinase it was 1 to 100 nM.

On to `COc1ccc(-c2cc3nccnc3c(NC[C@H]3CCCNC3)n2)cc1Cl` [Compound 93], for which the IC50 in assay [1] lay in the range of 100 to 1000 nM; in the assay on RBL-2H3 cells, 1 to 100 nM; on Syk kinase, 1 to 100 nM.

Consider `COc1ccc(-c2cc3nccnc3c(NC[C@H]3CCCNC3)n2)cc1F` [Compound 35], for which the half-maximal inhibitory concentration (IC50) in assay [1] lay in the range of 100 to 1000 nM; in the assay with RBL-2H3 cells, 1 to 100 nM; at Syk kinase it was 1 to 100 nM.

As to `CNc1ccc(-c2cc3nccnc3c(NCC3CCCNC3)n2)cc1` (stereo not drawn) [Compound 44], the 50% inhibitory concentration (IC50) in assay [1] fell in the range of 100 to 1000 nM; in the assay on RBL-2H3 cells it was 1 to 100 nM; at Syk kinase, 1 to 100 nM.

For `C[C@H](O)CNc1nc(-c2ccc(N3CCOCC3)cc2)cc2nccnc12` [Compound 161], the IC50 (in assay [1]; in the assay on RBL-2H3 cells; at Syk kinase) was 100 to 1000 nM each time.

Turning to `COc1ccc(-c2cc3nccnc3c(NCC3CCCNC3)n2)cc1` (stereo not drawn) [Compound 10], the IC50 was 100 to 1000 nM in assay [1], 100 to 1000 nM in the assay on RBL-2H3 cells and 1 to 100 nM at Syk kinase.

As for `c1cc(CNc2nc(-c3ccc(N4CCOCC4)cc3)cc3nccnc23)ccn1` [Compound 184], the IC50 (in assay [1]; with RBL-2H3 cells) was 100 to 1000 nM throughout.

Turning to `c1cnc2c(NC3CC3)nc(-c3ccc(N4CCOCC4)cc3)cc2n1` [Compound 181], the half-inhibitory concentration (IC50) (in assay [1]; in the assay with RBL-2H3 cells) was 100 to 1000 nM in each case.

As to `CN(C)c1ccc(-c2cc3nccnc3c(NCCC(N)=O)n2)cc1` [Compound 175, 3-(7-(4-(dimethylamino)phenyl)pyrido[4,3-b]pyrazin-5-ylamino)propanamide], the IC50 in the assay with RBL-2H3 cells and at Syk kinase was 100 to 1000 nM in each case.

In the case of `NC(=O)N[C@@H]1CCN(c2nc(-c3ccc(N4CCOCC4)cc3)cc3nccnc23)C1` [Compound 144], the 50% inhibitory concentration (IC50) in the assay on RBL-2H3 cells and on Syk kinase was 100 to 1000 nM throughout.

`CNc1ccc(-c2cc3nccnc3c(NC[C@@H]3CCCNC3)n2)cc1` [Compound 84]: the half-maximal inhibitory concentration (IC50) with RBL-2H3 cells and on Syk kinase was 100 to 1000 nM in each case.

Take `O=C(C1CCC1)N1CCN(c2ccc(-c3cc4nccnc4c(NC[C@@H]4CNCCO4)n3)cc2)CC1` [Compound 413]: the IC50 in the assay on RBL-2H3 cells and at Syk kinase was 1 to 100 nM each time.

`c1cnc2c(NC[C@@H]3CNCCO3)nc(-c3cnn(C4CCOCC4)c3)cc2n1` [Compound 261]: the IC50 with RBL-2H3 cells and at Syk kinase was 100 to 1000 nM in each case.

For `CCS(=O)(=O)N1CCN(c2ccc(-c3cc4nccnc4c(NC[C@@H]4CNCCO4)n3)cn2)CC1` [Compound 441], the half-inhibitory concentration (IC50) in the assay with RBL-2H3 cells fell in the range of 100 to 1000 nM; at Syk kinase, 1 to 100 nM.

Take `c1cnc2c(N3CCC4(CCCNC4)C3)nc(-c3ccc(N4CCOCC4)nc3)cc2n1` (stereo not drawn) [Compound 130]: the IC50 in the assay on RBL-2H3 cells and at Syk kinase was 1 to 100 nM throughout.

`c1cnc2c(NCC3CNCCCO3)nc(-c3ccc(N4CCOCC4)cc3)cc2n1` (stereo not drawn) [Compound 220]: the concentration for half-maximal inhibition (IC50) with RBL-2H3 cells and on Syk kinase was 100 to 1000 nM in each case.

As to `O=C(CCO)N1CCN(c2ccc(-c3cc4nccnc4c(NC[C@@H]4CNCCO4)n3)cc2)CC1` [Compound 410], the values for the IC50 in the assay on RBL-2H3 cells and on Syk kinase were 100 to 1000 nM and 1 to 100 nM, respectively.

In the case of `Fc1cc(-c2cc3nccnc3c(NC[C@@H]3CCCNC3)n2)ccc1N1CCOCC1` [Compound 121], the IC50 with RBL-2H3 cells lay in the range of 100 to 1000 nM; on Syk kinase, 1 to 100 nM.

On to `CN(C)c1ccc(-c2cc3nccnc3c(NC[C@@H]3CN(C(=O)C(F)F)CCO3)n2)cc1F` [Compound 456], for which the concentration for half-maximal inhibition (IC50) in the assay with RBL-2H3 cells and at Syk kinase was 1 to 100 nM in each case.

As for `CCS(=O)(=O)N1CCN(c2ccc(-c3cc4nccnc4c(NC[C@@H]4CNCCO4)n3)cc2)CC1` [Compound 435], the IC50 in the assay on RBL-2H3 cells and at Syk kinase was 1 to 100 nM each time.

Consider `CC(=O)N1CCN(c2ccc(-c3cc4nccnc4c(NCC4CNCCC4(F)F)n3)cn2)CC1` (stereo not drawn) [Compound 316], for which the IC50 in the assay on RBL-2H3 cells and on Syk kinase was 1 to 100 nM each time.

For the compound `CC(C)(C)c1ccc(-c2cc3nccnc3c(NC[C@@H]3CCCNC3)n2)cc1` [Compound 83], the 50% inhibitory concentration (IC50) with RBL-2H3 cells lay within 100 to 1000 nM; on Syk kinase it was 1 to 100 nM.

Take `CN(c1ccc(-c2cc3nccnc3c(NC[C@@H]3CNCCC3(F)F)n2)cc1)S(C)(=O)=O` [Compound 394, (S)—N-(4-(5-((4,4-difluoropiperidin-3-yl)methylamino)pyrido[4,3-b]pyrazin-7-yl)phenyl)-N-methylmethanesulfonamide]: the IC50 in the assay on RBL-2H3 cells and at Syk kinase was 1 to 100 nM throughout.

For `CS(=O)(=O)N1CCN(c2ccc(-c3cc4nccnc4c(NC[C@@H]4CNCCO4)n3)cn2)CC1` [Compound 440], the IC50 with RBL-2H3 cells was in the range of 100 to 1000 nM; on Syk kinase it was 1 to 100 nM.

With `CS(=O)(=O)N1CCC(c2ccc(-c3cc4nccnc4c(NC[C@@H]4CN(C(=O)C(F)F)CCO4)n3)cc2)CC1` [Compound 465], the IC50 with RBL-2H3 cells and at Syk kinase was 1 to 100 nM in each case.

For the compound `c1cnc2c(N[C@@H]3CCNC3)nc(-c3ccc(N4CCOCC4)cc3)cc2n1` [Compound 39], the half-inhibitory concentration (IC50) in the assay on RBL-2H3 cells and on Syk kinase was 100 to 1000 nM throughout.

For the compound `CNc1ccc(-c2cc3nccnc3c(NCC3CCCNC3)n2)cn1` (stereo not drawn) [Compound 60], the values for the IC50 in the assay on RBL-2H3 cells and on Syk kinase were 100 to 1000 nM and 1 to 100 nM, respectively.

Turning to `CS(=O)(=O)N1CCC(c2ccc(-c3cc4nccnc4c(NC[C@@H]4CN(S(C)(=O)=O)CCO4)n3)cc2)CC1` [Compound 469], the IC50 with RBL-2H3 cells and on Syk kinase was 1 to 100 nM throughout.

As to `CN(C)c1ccc(-c2cc3nccnc3c(NC[C@@H]3CNCCO3)n2)cc1C#N` [Compound 474], the half-inhibitory concentration (IC50) with RBL-2H3 cells and on Syk kinase was 1 to 100 nM throughout.

Consider `C[C@H]1CN(c2ccc(-c3cc4nccnc4c(NCC4CNCCC4(F)F)n3)cc2)CCO1` (single isomer, unassigned) [Compound 396], for which the IC50 in the assay with RBL-2H3 cells and at Syk kinase was 1 to 100 nM in each case.

Consider `CC(Nc1nc(-c2ccc(N3CCOCC3)cc2)cc2nccnc12)C1CNCCO1` (stereo not drawn) [Compound 276], for which the IC50 in the assay with RBL-2H3 cells and on Syk kinase was 1 to 100 nM throughout.

With `CC1CN(c2ccc(-c3cc4nccnc4c(NC[C@@H]4CNCCO4)n3)cc2F)CCO1` (mixture of isomers) [Compound 250], the results for the IC50 with RBL-2H3 cells and at Syk kinase were 1 to 100 nM and 100 to 1000 nM, respectively.

In the case of `CNC(=O)COc1ccc(-c2cc3nccnc3c(NC[C@@H]3CNCCC3(F)F)n2)cc1` [Compound 388, (S)-2-(4-(5-((4,4-difluoropiperidin-3-yl)methylamino)pyrido[4,3-b]pyrazin-7-yl)phenoxy)-N-methylacetamide], the 50% inhibitory concentration (IC50) with RBL-2H3 cells and at Syk kinase was 1 to 100 nM in each case.

Regarding `O=C([C@@H]1CCCO1)N1CCN(c2ccc(-c3cc4nccnc4c(NC[C@@H]4CNCCO4)n3)cc2)CC1` [Compound 415], the IC50 in the assay on RBL-2H3 cells and on Syk kinase was 1 to 100 nM each time.

Consider `COc1ccc(-c2cc3nccnc3c(NC[C@H]3CNCCO3)n2)cc1F` [Compound 95], for which the 50% inhibitory concentration (IC50) in the assay on RBL-2H3 cells and on Syk kinase was 100 to 1000 nM each time.

Regarding `CN(C)c1ccc(-c2cc3nccnc3c(N3CC[C@H](CO)C3)n2)cc1` [Compound 164], the concentration for half-maximal inhibition (IC50) with RBL-2H3 cells and at Syk kinase was 100 to 1000 nM each time.

Take `FC1(F)CCNC[C@H]1CNc1nc(-c2ccc(N3CCOCC3)nc2)cc2nccnc12` [Compound 374, (S)—N-((4,4-difluoropiperidin-3-yl)methyl)-7-(6-morpholinopyridin-3-yl)pyrido[4,3-b]pyrazin-5-amine]: the IC50 in the assay with RBL-2H3 cells and at Syk kinase was 1 to 100 nM each time.

In the case of `FC(F)(F)c1ccc(-c2cc3nccnc3c(NCC3CCCNC3)n2)cc1` (stereo not drawn) [Compound 63], the half-inhibitory concentration (IC50) is 100 to 1000 nM with RBL-2H3 cells and 1 to 100 nM on Syk kinase.

For `CC(=O)N1CCN(c2ccc(-c3cc4nccnc4c(NCC4CNCCC4(F)F)n3)cc2)CC1` (stereo not drawn) [Compound 305], the 50% inhibitory concentration (IC50) with RBL-2H3 cells and on Syk kinase was 1 to 100 nM in each case.

As for `CC(=O)OCCCOc1ccc(-c2cc3nccnc3c(NC[C@@H]3CNCCO3)n2)cc1` [Compound 477, (S)-3-(4-(5-(morpholin-2-ylmethylamino)pyrido[4,3-b]pyrazin-7-yl)phenoxy)propyl acetate], the 50% inhibitory concentration (IC50) with RBL-2H3 cells was 1 to 100 nM; at Syk kinase, 100 to 1000 nM.

For the compound `COc1ccc(-c2cc3nccnc3c(NC[C@H]3CCCNC3)n2)cc1OC` [Compound 33], the IC50 in the assay on RBL-2H3 cells was in the range of 100 to 1000 nM; on Syk kinase, 1 to 100 nM.

As to `CN1CCC(c2ccc(-c3cc4nccnc4c(NC[C@@H]4CN(C(=O)C(F)F)CCO4)n3)cc2)CC1` [Compound 463], the half-inhibitory concentration (IC50) with RBL-2H3 cells lay within 100 to 1000 nM; at Syk kinase, 1 to 100 nM.

For the compound `CS(=O)(=O)N1CCN(c2ccc(-c3cc4nccnc4c(NC[C@@H]4CN(C(=O)C(F)F)CCO4)n3)cc2)CC1` [Compound 467], the concentration for half-maximal inhibition (IC50) in the assay with RBL-2H3 cells and on Syk kinase was 1 to 100 nM each time.

Take `O=C(C(F)F)N1CCO[C@H](CNc2nc(-c3ccc(N4CCOCC4)cc3)cc3nccnc23)C1` [Compound 323]: the IC50 in the assay with RBL-2H3 cells and on Syk kinase was 1 to 100 nM throughout.

With `CCS(=O)(=O)N1CCN(c2ccc(-c3cc4nccnc4c(NCC4CNCCC4(F)F)n3)cc2)CC1` (stereo not drawn) [Compound 445], the IC50 with RBL-2H3 cells and at Syk kinase was 1 to 100 nM in each case.
